Results on one compound are retold here after US9579406B2, “Phospholipid ether analogs as agents for detecting and locating cancer, and methods thereof” (Cellectar, Inc., priority 2004, dated 2017).

One data set relates to SCC1 and 6. The data set can be described thus: Tumor models examined with NM404 (Table 2). To be noted: Squamous cell carcinoma. It counts as in vivo, Nude mouse xenograft. An excerpt: NM404 has now been evaluated in 27 animal tumor models, including several lung, and it is clear that once the agent enters tumor cells, it reaches a metabolic dead end and becomes trapped. […] NM404 is also retained in spontaneous murine lung tumors (FIG. 13). Using ^125I-labeled NM404, the inventors have been able to image mammary and prostate tumors in mice in excess of 60 days. […] Imaging and tissue distribution studies performed in mouse models aimed at determining the uptake characteristics in a wide variety of tumor models are summarized in Table 2.
Although tumor retention can be explained by a lack of metabolic phospholipase enzymes in the tumor cell membranes, the exact mechanism of tumor cell uptake is unknown. […] The inventors are currently evaluating the selectivity of NM404 in a unique mouse tumor model developed at Wisconsin, wherein both preneoplastic hyperplasias and malignant adenocarcinomas form spontaneously in the mammary gland. […] If this initial observation is validated, then via genomic and or proteomic analysis the inventors may be able to identify a key genetic difference between malignant tumors and their non malignant predecessor cells. This could identify a completely new molecular therapeutic target that may be universal for all types of cancer.

Data set [1] is described as follows: Blood plasma kinetics in rats. It counts as in vivo. To be noted: rat.
The test system of data set [2] is non-small cell lung cancer. The data set can be described thus: Planar gamma-camera scintigraphy with 131I-NM-404 in NSCLC patients. The note with it: time points examined.
Method: The preparation dispensed by the Nuclear Pharmacy will be certified as sterile and pyrogen-free. The subject will be monitored for adverse reactions during and after the infusion. Vital signs will be checked immediately after the infusion, and at 60 minute intervals up to four hours post-injection. They will be observed for adverse events throughout this time. […] Vital signs will be monitored at these times. Any adverse reactions experienced by the subjects will be recorded.
The subject of data set [3] is human PC-3 prostate tumor xenografts. Kind of data set: Scintigraphy and tissue distribution in SCID mice bearing human PC-3 prostate tumor xenografts. To be noted: day 5. It counts as in vivo. The text has this:
Tumor uptake, however, continued to increase up until day 5 when it reached 18% injected dose per gram of tumor. […] Tumor to background tissue ratios exceeded 4, 6.8, 23, and 9 in blood, liver, muscle, and prostate, respectively, 3 days after injection and continued to improve at 5 and 8 days. Again, although thyroid levels ranged from 26 to 54% injected dose per gram of tissue, these levels are actually quite low and represent an extremely small percentage of the injected dose when the exceedingly small mass of the organ is considered and the data are presented on a percent administered dose per organ basis.
For orientation: Xenograft models place foreign cells or tissue in a host animal.

Where two headings read alike, the source gives them in different places.

Turning to `C[N+](C)(C)CCOP(=O)([O-])OCCCCCCCCCCCCCCCCCCc1ccc(I)cc1` [NM-404, 18-(4-iodophenyl)-octadecylphosphocholine], the “NM404 Tumor Localization” value with SCC1 and 6 is reported as “Yes (Localization defined as >5% injected dose per gram tumor basis based on tissue distribution data)”. The half-life was 4.86 h in data set [1] (read-out: distribution phase half life (converted)) and roughly 209 h in data set [1] (read-out: elimination half life time in plasma (converted)). For the same compound, the urinary bladder radioactivity result in data set [2] is “lack of urinary bladder radioactivity”. Further, the tumor uptake in data set [3] is 18 % injected dose per gram of tumor.

As usually defined, the half-life is the time in which the quantity being followed falls by half.
